Data reported in patent US20130029928A1 (priority 2010, published 2013).
Where two headings read alike, the source gives them in different places.

Assay: Phase I study CXR1002-001: plasma pharmacokinetics (LC-MS/MS)
Format: in vivo, human
Conditions: human, plasma, oral, person, plasma, read-out: Concentration; for concentration at 168 h: 168 hr (Day 8); for concentration at 192 h: 192 hr (Day 9); for concentration at 336 h: 336 hr (Day 15); for concentration at 360 h: 360 hr (Day 16); for concentration at 504 h: 504 hr (Day 22); for concentration at 528 h: 528 hr (Day 23); for concentration at 672 h: 672 hr (Day 29); for concentration at 696 h: 696 hr (Day 30); for concentration at 840 h: 840 hr (Day 36); for concentration at 24 h: 24 hr (Day 2); for concentration at 864 h: 864 hr (Day 37)
Description: PK samples, PD (fasting) samples, blood glucose, and blood triglyceride samples, were taken over a 6-week period.
Dose limiting toxicity (DLT) will be based on the toxicity assessments over the first 3-week period of the repeat dosing schedule. PK samples (single blood sample) were taken on the following basis: • Every 6 weeks during the repeat dosing phase • If dosing is interrupted or stopped, samples will be taken at intervals according to patient convenience • PK sampling for safety evaluation may take place at any time, as clinically indicated
Plasma samples were collected after the single 50 mg dose at the following timepoints: Pre-dose, and then 0.25, 0.5, 0.75, 1, 1.5, 2, 3, 4, 6, 24, 48, and 72 hours after administration and then once weekly at weeks 2, 3, 4, 5, and 6 (days 8, 15, 22, 29, and 36). For patients treated with the weekly repeat dose, plasma samples were collected at the following timepoints: Pre-dose and then 2, 3, 4 and 24 hours after administration for a total of 6 weeks. Thereafter a single sample was collected every 6 weeks for monitoring of exposure during long term treatment. Plasma samples were processed at site and stored at −80° C. prior to batch shipment to the analytical laboratory.

O=C(O)C(F)(F)C(F)(F)C(F)(F)C(F)(F)C(F)(F)C(F)(F)C(F)(F)F [CXR1002]
concentration at 168 h (750 mg, Patient 027, 750 mg): 168 µM
concentration at 170 h (750 mg, Patient 027, 750 mg): 235 µM
concentration at 171 h (750 mg, Patient 027, 750 mg): 318 µM
concentration at 172 h (750 mg, Patient 027, 750 mg): 344 µM
concentration at 192 h (750 mg, Patient 027, 750 mg): 411 µM
concentration at 336 h (750 mg, Patient 027, 750 mg): 366 µM
concentration at 338 h (750 mg, Patient 027, 750 mg): 384 µM
concentration at 339 h (750 mg, Patient 027, 750 mg): 412 µM
concentration at 340 h (750 mg, Patient 027, 750 mg): 451 µM
concentration at 360 h (750 mg, Patient 027, 750 mg): 569 µM
concentration at 504 h (750 mg, Patient 027, 750 mg): 476 µM
concentration at 506 h (750 mg, Patient 027, 750 mg): 658 µM
concentration at 507 h (750 mg, Patient 027, 750 mg): 669 µM
concentration at 508 h (750 mg, Patient 027, 750 mg): 671 µM
concentration at 528 h (750 mg, Patient 027, 750 mg): 720 µM
concentration at 672 h (750 mg, Patient 027, 750 mg): 606 µM
concentration at 674 h (750 mg, Patient 027, 750 mg): 769 µM
concentration at 675 h (750 mg, Patient 027, 750 mg): 811 µM
concentration at 676 h (750 mg, Patient 027, 750 mg): 757 µM
concentration at 696 h (750 mg, Patient 027, 750 mg): 803 µM
concentration at 840 h (750 mg, Patient 027, 750 mg): 673 µM
concentration at 2 h (750 mg, Patient 028, 750 mg): 207 µM
concentration at 3 h (750 mg, Patient 028, 750 mg): 174 µM
concentration at 4 h (750 mg, Patient 028, 750 mg): 160 µM
concentration at 24 h (750 mg, Patient 028, 750 mg): 160 µM
concentration at 168 h (750 mg, Patient 028, 750 mg): 161 µM
concentration at 170 h (750 mg, Patient 028, 750 mg): 321 µM
concentration at 171 h (750 mg, Patient 028, 750 mg): 301 µM
concentration at 172 h (750 mg, Patient 028, 750 mg): 273 µM
concentration at 192 h (750 mg, Patient 028, 750 mg): 295 µM
concentration at 336 h (750 mg, Patient 028, 750 mg): 288 µM
concentration at 338 h (750 mg, Patient 028, 750 mg): 473 µM
concentration at 339 h (750 mg, Patient 028, 750 mg): 396 µM
concentration at 340 h (750 mg, Patient 028, 750 mg): 406 µM
concentration at 360 h (750 mg, Patient 028, 750 mg): 450 µM
concentration at 504 h (750 mg, Patient 028, 750 mg): 467 µM
concentration at 506 h (750 mg, Patient 028, 750 mg): 582 µM
concentration at 507 h (750 mg, Patient 028, 750 mg): 490 µM
concentration at 508 h (750 mg, Patient 028, 750 mg): 581 µM
concentration at 528 h (750 mg, Patient 028, 750 mg): 655 µM
concentration at 672 h (750 mg, Patient 028, 750 mg): 522 µM
concentration at 674 h (750 mg, Patient 028, 750 mg): 710 µM
concentration at 675 h (750 mg, Patient 028, 750 mg): 713 µM
concentration at 676 h (750 mg, Patient 028, 750 mg): 700 µM
concentration at 696 h (750 mg, Patient 028, 750 mg): 758 µM
concentration at 840 h (750 mg, Patient 028, 750 mg): 682 µM
concentration at 842 h (750 mg, Patient 028, 750 mg): 824 µM
concentration at 843 h (750 mg, Patient 028, 750 mg, 843 hr): 792 µM
concentration at 844 h (750 mg, Patient 028, 750 mg, 844 hr): 853 µM
concentration at 864 h (750 mg, Patient 028, 750 mg): 775 µM
concentration at 2 h (950 mg, Patient 029, 950 mg): 219 µM
concentration at 3 h (950 mg, Patient 029, 950 mg): 251 µM
concentration at 4 h (950 mg, Patient 029, 950 mg): 307 µM
concentration at 24 h (950 mg, Patient 029, 950 mg): 353 µM
concentration at 168 h (950 mg, Patient 029, 950 mg): 289 µM
concentration at 170 h (950 mg, Patient 029, 950 mg): 604 µM
concentration at 171 h (950 mg, Patient 029, 950 mg): 602 µM
concentration at 172 h (950 mg, Patient 029, 950 mg): 556 µM
concentration at 192 h (950 mg, Patient 029, 950 mg): 606 µM
concentration at 336 h (950 mg, Patient 029, 950 mg): 439 µM
concentration at 338 h (950 mg, Patient 029, 950 mg): 704 µM
concentration at 339 h (950 mg, Patient 029, 950 mg): 777 µM
concentration at 340 h (950 mg, Patient 029, 950 mg): 674 µM
concentration at 360 h (950 mg, Patient 029, 950 mg): 896 µM
concentration at 504 h (950 mg, Patient 029, 950 mg): 400 µM
concentration at 506 h (950 mg, Patient 029, 950 mg): 897 µM
concentration at 507 h (950 mg, Patient 029, 950 mg): 741 µM
concentration at 508 h (950 mg, Patient 029, 950 mg): 701 µM
concentration at 528 h (950 mg, Patient 029, 950 mg): 781 µM
concentration at 672 h (950 mg, Patient 029, 950 mg): 492 µM
concentration at 674 h (950 mg, Patient 029, 950 mg): 841 µM
concentration at 675 h (950 mg, Patient 029, 950 mg): 972 µM
concentration at 676 h (950 mg, Patient 029, 950 mg): 812 µM
concentration at 696 h (950 mg, Patient 029, 950 mg): 949 µM
concentration at 840 h (950 mg, Patient 029, 950 mg): 777 µM
concentration at 842 h (950 mg, Patient 029, 950 mg): 793 µM
concentration at 864 h (950 mg, Patient 029, 950 mg): 1040 µM
concentration at 3 h (950 mg, Patient 030, 950 mg): 219 µM
concentration at 4 h (950 mg, Patient 030, 950 mg): 333 µM
concentration at 24 h (950 mg, Patient 030, 950 mg): 214 µM
concentration at 2 h (950 mg, Patient 031, 950 mg): 267 µM
concentration at 3 h (950 mg, Patient 031, 950 mg): 338 µM
concentration at 4 h (950 mg, Patient 031, 950 mg): 336 µM
concentration at 24 h (950 mg, Patient 031, 950 mg): 348 µM
concentration at 168 h (950 mg, Patient 031, 950 mg): 237 µM
concentration at 170 h (950 mg, Patient 031, 950 mg): 513 µM
concentration at 171 h (950 mg, Patient 031, 950 mg): 463 µM
concentration at 172 h (950 mg, Patient 031, 950 mg): 427 µM
concentration at 192 h (950 mg, Patient 031, 950 mg): 516 µM
concentration at 336 h (950 mg, Patient 031, 950 mg): 554 µM
concentration at 338 h (950 mg, Patient 031, 950 mg): 668 µM
concentration at 339 h (950 mg, Patient 031, 950 mg): 715 µM
concentration at 340 h (950 mg, Patient 031, 950 mg): 697 µM
concentration at 360 h (950 mg, Patient 031, 950 mg): 800 µM
concentration at 504 h (950 mg, Patient 031, 950 mg): 755 µM
concentration at 506 h (950 mg, Patient 031, 950 mg): 794 µM
concentration at 507 h (950 mg, Patient 031, 950 mg): 861 µM
concentration at 508 h (950 mg, Patient 031, 950 mg): 998 µM
concentration at 528 h (950 mg, Patient 031, 950 mg): 958 µM
concentration at 672 h (950 mg, Patient 031, 950 mg): 813 µM
concentration at 674 h (950 mg, Patient 031, 950 mg): 921 µM
concentration at 675 h (950 mg, Patient 031, 950 mg): 882 µM
concentration at 676 h (950 mg, Patient 031, 950 mg): 938 µM
concentration at 696 h (950 mg, Patient 031, 950 mg): 1030 µM
concentration at 2 h (950 mg, Patient 032, 950 mg): 292 µM
concentration at 3 h (950 mg, Patient 032, 950 mg): 191 µM
concentration at 4 h (950 mg, Patient 032, 950 mg): 231 µM
concentration at 24 h (950 mg, Patient 032, 950 mg): 161 µM
concentration at 168 h (950 mg, Patient 032, 950 mg): 192 µM
concentration at 170 h (950 mg, Patient 032, 950 mg): 439 µM
concentration at 171 h (950 mg, Patient 032, 950 mg): 478 µM
concentration at 172 h (950 mg, Patient 032, 950 mg): 517 µM
concentration at 192 h (950 mg, Patient 032, 950 mg): 495 µM
concentration at 2 h (1000 mg, Patient 040, 1000 mg): 188 µM
concentration at 3 h (1000 mg, Patient 040, 1000 mg): 168 µM
